For four molecules, inhibition and IC50 results are on record in patent EP1144369B1 (Wyeth Holdings Corporation, priority 1999, dated 2000).

Counter-ions that a name gives are not always drawn.

The target of one assay is T1, MMP-1 (Homo sapiens, UniProt P03956).
T1 sequence (P03956 100-469): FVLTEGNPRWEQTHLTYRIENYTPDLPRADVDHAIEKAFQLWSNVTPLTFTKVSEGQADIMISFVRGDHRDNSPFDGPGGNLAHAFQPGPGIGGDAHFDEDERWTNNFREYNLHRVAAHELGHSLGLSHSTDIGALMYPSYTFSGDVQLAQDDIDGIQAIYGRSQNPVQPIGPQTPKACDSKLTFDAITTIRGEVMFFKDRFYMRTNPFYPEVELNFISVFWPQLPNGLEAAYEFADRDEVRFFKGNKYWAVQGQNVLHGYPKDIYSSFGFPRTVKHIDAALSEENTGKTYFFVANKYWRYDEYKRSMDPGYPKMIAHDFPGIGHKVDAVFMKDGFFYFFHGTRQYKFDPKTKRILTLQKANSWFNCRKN
Briefly: MMP-1 inhibition (thiopeptide or fluorescent peptide substrate). The note with it: for IC50: plain number = IC50. The format is biochemical. How it is done: (§1) The enzyme activity is measured by the rate of the color increase. The thiopeptide substrate is made up fresh as a 20 mM stock in 100% DMSO and the DTNB is dissolved in 100% DMSO as a 100 mM stock and stored in the dark at room temperature. Both the substrate and DTNB are diluted together to 1 mM with substrate buffer (50 mM HEPES pH 7.5, 5 mM CaCl2) before use. The stock of enzyme is diluted with buffer (50 mM HEPES, pH 7.5, 5 mM CaCl2, 0.02% Brij) to the desired final concentration.
(§2) Alternatively, a fluorescent peptide substrate is used. In this test procedure, the peptide substrate contains a fluorescent group and a quenching group. Upon cleavage of the substrate by an MMP, the fluorescence that is generated is quantitated on the fluorescence plate reader. The assay is run in HCBC assay buffer (50mM HEPES, pH 7.0, 5 mM Ca^+2, 0.02% Brij, 0.5% Cysteine), with human recombinant MMP-1, MMP-9, or MMP-13. The substrate is dissolved in methanol and stored frozen in 1 mM aliquots. For the assay, substrate and enzymes are diluted in HCBC buffer to the desired concentrations. Compounds are added to the 96 well plate containing enzyme and the reaction is started by the addition of substrate.
(§3) For either the thiopeptide or fluorescent peptide test procedures, the slope of the line is calculated and represents the reaction rate. The linearity of the reaction rate is confirmed (r^2 >0.85). The mean (x±sem) of the control rate is calculated and compared for statistical significance (p<0.05) with drug-treated rates using Dunnett's multiple comparison test.

Another assay has as its target MMP-9 (Homo sapiens, UniProt P14780). The assay is described as follows: MMP-9 inhibition (thiopeptide or fluorescent peptide substrate). The format is biochemical. How it is done: as §1, §2, §3
The target in the next assay is MMP-13 (Homo sapiens, UniProt P45452). Briefly: MMP-13 inhibition (thiopeptide or fluorescent peptide substrate). The format is biochemical. As for the experimental part:
as §1, §2, §3

Assay [1] has as its target TNF-α converting enzyme (TACE) (Homo sapiens, UniProt P78536). The assay is described as follows: TACE inhibition (fluorescent peptidyl substrate). The note with it: read-out: IC50 (nM) or % Inhibition (µM) TACE. In kind it is biochemical. As for the experimental part:
Using 96-well black microtiter plates, each well receives a solution composed of 10 µL TACE (final concentration 1µg/mL), 70µL Tris buffer, pH 7.4 containing 10% glycerol (final concentration 10 mM), and 10 µL of test compound solution in DMSO (final concentration 1µM, DMSO concentration <1%) and incubated for 10 minutes at room temperature. The reaction is initiated by addition of a fluorescent peptidyl substrate (final concentration 100 µM) to each well and then shaking on a shaker for 5 sec.
The reaction is read (excitation 340 nm, emission 420 nm) for 10 min. and the increase in fluorescence over time is plotted as a linear line. The slope of the line is calculated and represents the reaction rate.
The linearity of the reaction rate is confirmed (r^2 >0.85). The mean (x±sem) of the control rate is calculated and compared for statistical significance (p<0.05) with drug-treated rates using Dunnett's multiple comparison test.

A further assay deals with THP-1 cells. Briefly: THP-1 soluble protein assay (LPS-stimulated human monocytic THP-1 cells). The format is cell-based. The note with it: Homo sapiens, LPS-stimulated THP-1 cells, read-out: % Inhib. @ 3µM THP. From the text:
Mitogenic stimulation of THP-1 cells cause differentiation into macrophage like cells with concomitant secretion of tumor necrosis factor (TNF-a) and TNF receptor (TNF-R p75/80 and TNF-R p55/60) and Interleukin-8 (IL-8), among other proteins. In addition, non-stimulated THP-1 cells shed both the p75/80 and the p55/60 receptors over time. The release of membrane bound TNF-α and possibly TNF-R p75/80 and TNF-R p55/60, but not IL-8, is mediated by an enzyme called TNF-a converting enzyme or TACE.
THP-1 cells (from ATCC) are a human monocytic cell line which were obtained from the peripheral blood of a person with acute monocytic leukemia. They can be grown in culture and differentiated into macrophage like cells by stimulation with mitogens.
Each vial of cells are cultured for about two weeks prior to being used for an assay and then are used for only 4 to 6 weeks to screen compounds.
Cell exposure to DMSO was limited to 0.1 % final concentration. […] Compounds can be evaluated for their effect on basal (non-stimulated) shedding of the receptors by replacing the LPS with […] of THP-1 media. Plates are placed into an incubator set at 5% CO2 and at 37°C. After 4 hours of incubation, […] of tissue culture supernatant (TCS) is removed for use in an TNF-a ELISA. Following 24 hours of incubation, […] of TCS is removed and used for analysis in TNF-R p75/80, TNF-R p55/60 and IL-8 ELISAs.
In addition, at the 24 hours timepoint, and the cells for each treatment group are collected by resuspension in 500 µl/well of THP-1 media and transferred into a FACS tube. […] The samples are run on a Becton Dickinson FaxCaliber FLOW cytometry machine and the amount of dye taken up by each cell is measured in the high red wavelength (FL3). Only cells with compromised membranes (dead or dying) can take up PI. The percent of live cells is calculated by the number of cells not stained with PI, divided by the total number of cells in the sample. The viability values calculated for the drug treated groups were compared to the viability value calculated for the vehicle treated mitogen stimulated group ("vehicle positive control") to determine the "percent change from control". This "percent change from control" value is an indicator of drug toxicity.
The quantity of soluble TNF-a, TNF-R p75/80 and TNF-R p55/60 and IL-8 in the TCS of the THP-1 cell cultures are obtained with commercially available ELISAs from R&D Systems, by extrapolation from a standard curve generated with kit standards. The number of cells that either take up or exclude PI are measured by the FLOW cytometry machine and visualized by histograms using commercially available Cytologic software for each treatment group including all controls.
Biological variability in the magnitude of the response of THP-1 cell cultures requires that experiments be compared on the basis of percent change from "vehicle positive control" for each drug concentration. Percent change in each soluble protein evaluated from the "vehicle positive control" was calculated for each compound concentration with the following formula: % Change =(pg/ml(compound) - pg/ml (veh pos control))/(pg/ml (veh pos control) - pg/ml(veh neg control))x 100 [formula]
For the soluble protein (TNF-a, p75/80, p55/60, IL-8) studies under stimulated conditions, the mean pg/ml of duplicate wells were determined and the results expressed as percent change from "vehicle positive control". For the soluble protein (p75/80 and p55/60 receptors) studies under non-stimulated conditions, the mean pg/ml of duplicate wells were determined and the results expressed as percent change from "vehicle positive control" utilizing the following formula: % Change =(pg/ml (compound neg control) - pg/ml (veh neg control)/(pg/ml (veh neg control))X 100 [formula]
IC50 values for each compound are calculated by non-linear regression analysis using customized software utilizing the JUMP statistical package.

MMP-9, sequence (P14780 94-707): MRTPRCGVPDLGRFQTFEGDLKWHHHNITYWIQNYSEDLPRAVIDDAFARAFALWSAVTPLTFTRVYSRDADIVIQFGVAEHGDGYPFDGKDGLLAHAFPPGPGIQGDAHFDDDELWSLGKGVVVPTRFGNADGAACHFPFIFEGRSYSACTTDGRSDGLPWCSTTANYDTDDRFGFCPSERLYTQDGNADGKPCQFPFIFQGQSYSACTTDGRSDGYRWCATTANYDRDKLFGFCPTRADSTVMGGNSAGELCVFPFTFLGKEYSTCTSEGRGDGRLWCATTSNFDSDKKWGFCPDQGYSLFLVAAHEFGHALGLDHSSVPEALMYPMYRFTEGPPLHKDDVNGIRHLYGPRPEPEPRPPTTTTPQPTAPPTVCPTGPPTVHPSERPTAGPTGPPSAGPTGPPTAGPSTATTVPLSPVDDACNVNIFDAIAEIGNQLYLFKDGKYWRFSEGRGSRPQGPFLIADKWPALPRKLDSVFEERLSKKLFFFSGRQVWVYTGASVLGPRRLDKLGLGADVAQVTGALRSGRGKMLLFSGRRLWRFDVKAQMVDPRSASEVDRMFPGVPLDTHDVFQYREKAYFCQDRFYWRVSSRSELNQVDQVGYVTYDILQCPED
TNF-α converting enzyme (TACE), sequence (P78536 215-824, species assumed): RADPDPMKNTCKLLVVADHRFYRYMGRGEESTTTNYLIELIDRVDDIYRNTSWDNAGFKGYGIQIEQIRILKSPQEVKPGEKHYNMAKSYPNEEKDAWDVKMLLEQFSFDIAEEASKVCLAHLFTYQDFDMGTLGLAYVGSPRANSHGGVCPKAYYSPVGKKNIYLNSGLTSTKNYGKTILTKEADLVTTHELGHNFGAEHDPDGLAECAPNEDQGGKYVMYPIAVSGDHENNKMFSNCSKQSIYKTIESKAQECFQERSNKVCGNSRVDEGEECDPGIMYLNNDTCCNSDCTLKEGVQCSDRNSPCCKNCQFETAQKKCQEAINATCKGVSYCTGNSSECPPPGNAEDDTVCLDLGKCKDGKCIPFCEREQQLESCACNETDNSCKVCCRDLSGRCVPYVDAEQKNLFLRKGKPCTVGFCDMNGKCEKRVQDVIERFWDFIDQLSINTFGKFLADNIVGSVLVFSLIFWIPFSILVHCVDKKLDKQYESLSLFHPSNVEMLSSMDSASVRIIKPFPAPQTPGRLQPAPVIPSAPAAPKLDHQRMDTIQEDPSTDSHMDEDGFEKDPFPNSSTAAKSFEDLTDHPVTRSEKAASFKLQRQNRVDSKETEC

Consider `Cc1cc(Br)cc(C(=O)NO)c1N(C)S(=O)(=O)c1ccc(OCC#CCOC2CCCCO2)cc1` (centres unmarked) [Example 69, 5-Bromo-N-hydroxy-3-methyl-2-(methyl-{4-[4-(tetrahydro-pyran-2-yloxy)-but-2-ynyloxy]-benzenesulfonyl}-amino)-benzamide], for which, on MMP-1 (read-out: IC50 (nM) or % Inhibition (µM) MMP-1), the inhibition at 10 µM amounted to 25%. Besides, the IC50 against MMP-9 was determined as 396 nM; against MMP-13, 177 nM; in assay [1], 30 nM. In addition, the inhibition at 3 µM with THP-1 cells stood at 19%.

Regarding `CC#CCOc1ccc(S(=O)(=O)N(C)c2c(CN3CCN(C)CC3)cc(-c3ccccc3)cc2C(=O)NO)cc1` [Example 76, 4-[(4-But-2-ynyloxy-benzenesulfonyl)-methyl-amino]-5-(4-methyl-piperazin-1-ylmethyl)-biphenyl-3-carboxylic acid hydroxyamide dihydro-chloride salt], the IC50 is 1920 nM at MMP-1, 28 nM against MMP-9, 47 nM against MMP-13 and 42 nM in assay [1]. Moreover, the inhibition at 3 µM in the assay with THP-1 cells turned out to be 95%.

As for `C#CC(C)Oc1ccc(S(=O)(=O)N(C)c2c(C)cc(Br)cc2C(=O)NO)cc1` (centres unmarked) [Example 79, 5-Bromo-N-hydroxy-3-methyl-2-{methyl-[4-(1-methyl-prop-2-ynyloxy)-benzenesulfonyl]-amino}-benzamide], the IC50 is 1530 nM against MMP-1, 455 nM against MMP-9, 433 nM at MMP-13 and 122 nM in assay [1]. In addition, the inhibition at 3 µM in the assay with THP-1 cells stood at 9%.

Turning to `Cc1cc(Br)cc(C(=O)NO)c1N(C)S(=O)(=O)c1ccc(OCC#Cc2cccc(O)c2)cc1` [Example 84, 5-Bromo-N-hydroxy-2-({4-[3-(3-hydroxy-phenyl)-prop-2-ynyloxy]-benzenesulfonyl}-methyl-amino)-3-methyl-benzamide], the IC50 against MMP-1 was found to be 113 nM; on MMP-9 it was 694 nM; at MMP-13, 189 nM; in assay [1], 34 nM. In addition, in the assay with THP-1 cells, the inhibition at 3 µM stood at 0%.

As a reminder, the IC50 is the concentration at which inhibition is half-maximal.
